Tests used:
CCR1 = molecular target: T1, CCR1 (Homo sapiens, UniProt P32246); assay: Chemotaxis assay (inhibition of CCR1 mediated migration); type: cell-based; conditions: chemotaxis of THP-1 or monocyte cells toward CCR1 chemokine ligand (MIP-1α, CCL15/leukotactin); read-out: Avg Mig IC50
T1 construct: host or cells: THP-1 cells (or freshly isolated monocytes)
T1 sequence (P32246 1-355): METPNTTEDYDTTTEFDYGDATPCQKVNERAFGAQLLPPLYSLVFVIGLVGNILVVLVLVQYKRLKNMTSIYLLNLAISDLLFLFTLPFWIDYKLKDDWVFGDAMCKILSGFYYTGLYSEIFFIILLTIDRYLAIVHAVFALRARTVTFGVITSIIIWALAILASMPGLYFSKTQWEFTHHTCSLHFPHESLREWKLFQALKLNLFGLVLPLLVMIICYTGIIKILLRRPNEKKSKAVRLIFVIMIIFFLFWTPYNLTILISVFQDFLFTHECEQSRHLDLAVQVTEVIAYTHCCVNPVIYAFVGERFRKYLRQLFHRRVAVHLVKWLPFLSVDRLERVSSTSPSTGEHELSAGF
Description: THP-1 cells were obtained from ATCC (TIB-202) and cultured as a suspension in RPMI-1640 medium supplemented with 2 mM L-glutamine, 1.5 g/L sodium bicarbonate, 4.5 g/L glucose, 10 mM HEPES, 1 mM sodium pyruvate, 0.05% 2-mercaptoethanol and 10% FBS. Cells were grown under 5% CO2/95% air, 100% humidity at 37° C. and subcultured twice weekly at 1:5 (cells were cultured at a density range of 2×10^5 to 2×10^6 cells/mL) and harvested at 1×10^6 cells/mL. THP-1 cells express CCR1 and can be used in CCR1 binding and functional assays.
Chemotaxis assays were performed using 5 μm pore polycarbonate, polyvinylpyrrolidone-coated filters in 96-well chemotaxis chambers (Neuroprobe; Gaithersburg, Md.) using chemotaxis buffer (Hank's balanced salt solution (HBSS) and 1% FBS). CCR1 chemokine ligands (i.e., MIP-1α, CCL15/Leukotactin; R&D Systems; Minneapolis, Minn.) are use to evaluate compound mediated inhibition of CCR1 mediated migration. Other chemokines (i.e., SDF-1α; R&D Systems; Minneapolis, Minn.) are used as specificity controls. The lower chamber was loaded with 29 μl of chemokine (i.e., 0.1 nM CCL15/Leukotactin) and varying amounts of compound; the top chamber contained 100,000 THP-1 or monocyte cells in 20 μl. The chambers were incubated 1-2 hours at 37° C., and the number of cells in the lower chamber quantified either by direct cell counts in five high powered fields per well or by the CyQuant assay (Molecular Probes), a fluorescent dye method that measures nucleic acid content and microscopic observation.
One of the primary functions of chemokines is their ability to mediate the migration of chemokine receptor-expressing cells, such as white blood cells. To confirm that a compound of interest inhibited not only CCR1 specific binding and signaling (at least as determined by calcium mobilization assays), but also CCR1 mediated migration, a chemotaxis assay was employed. THP-1 myelomonocytic leukemia cells, which resemble monocytes, as wells as freshly isolated monocytes, were used as targets for chemoattraction by CCR1 chemokine ligands (i.e., MIP-1α, CCL15/leukotactin). Cells were placed in the top compartment of a microwell migration chamber, while MIP-1α (or other potent CCR1 chemokine ligand) and increasing concentrations of a compound of interest was loaded in the lower chamber. […] To ascertain a compound of interest's affinity for CCR1 as well as to confirm its ability to inhibit CCR1 mediated cell migration, inhibitory activity was titered over a 1×10^−10 to 1×10^−4 M range of compound concentrations in this chemotaxis assay. In this assay, the amount of compound was varied; while cell number and chemokine agonist concentrations were held constant. After the chemotaxis chambers were incubated 1-2 hours at 37° C., the responding cells in the lower chamber were quantified by labeling with the CyQuant assay (Molecular Probes), a fluorescent dye method that measures nucleic acid content, and by measuring with a Spectrafluor Plus (Tecan). The computer program Prism from GraphPad, Inc. (San Diego, Calif.) was used to calculate IC50 values. IC50 values are those compound concentrations required to inhibit the number of cells responding to a CCR1 agonist by 50%.

CCR1 bearing neutrophils = assay: Murine model of inflammation (thioglycolate induced peritoneal inflammation); type: in vivo; conditions: 3% thioglycolate into the peritoneum
Description: Murine Model of Inflammation
A method of inducing peritoneal inflammation by the introduction of 3% thioglycolate into the peritoneum is well know in the art. Following the introduction of thioglycolate, a rapid influx of immune cells to the site, primarily CCR1 bearing neutrophils, results in local inflammation at 24 hours. A peritoneal exudate can be sampled, and the cell number and composition can be assessed to determine the anti-inflammatory properties of a compound of interest administered before, during or after the thioglycolate induction.

| SMILES | IC50 (CCR1) [nM] | other results |
| --- | --- | --- |
| Cc1nc(C(F)(F)F)cn1C1CCN(c2cnn(-c3ccc(F)cc3)c2N(C)C)C1=O (stereo not shown) [Compound 1.001] | 100 to 20000 | – |
| Cc1nc(C(F)(F)F)cn1C1CCN(c2cnn(-c3ccc(F)cc3)c2OC(C)C)C1=O (stereo not shown) [Compound 1.002] | ≤ 100 | – |
| Cc1nc(C(F)(F)F)cn1C1(C)CCN(c2cnn(-c3ccc(Cl)cc3)c2C(C)C)C1=O (stereo not shown) [Compound 1.003] | 100 to 20000 | – |
| Cc1nc(C(F)(F)F)cn1C1CC(C)N(c2cnn(-c3ccc(F)cc3)c2C(C)C)C1=O (stereo not shown) [Compound 1.005] | 100 to 20000 | – |
| Cc1c(Cl)c(C(F)(F)F)nn1C1CCN(c2cnn(-c3ccc(F)cc3)c2C2CC2)C1=O (stereo not shown) [Compound 1.006] | ≤ 100 | – |
| CCCc1c(N2CCC(n3nc(C(F)(F)F)c(Cl)c3C)C2=O)cnn1-c1ccc(F)cc1 (stereo not shown) [Compound 1.007] | 100 to 20000 | – |
| Cc1nc(C(F)(F)F)cn1C1CCN(c2cnn(-c3ccc(Cl)cc3)c2C(C)C)C1=O (stereo not shown) [Compound 1.008] | ≤ 100 | – |
| Cc1c(Cl)c(C(F)(F)F)nn1C1CC(C)N(c2cnn(-c3ccc(F)cc3)c2C(C)C)C1=O (stereo not shown) [Compound 1.009] | ≤ 100 | – |
| CCC(C)c1c(N2CCC(n3nc(C(F)(F)F)c(Cl)c3C)C2=O)cnn1-c1ccc(F)cc1 (stereo not shown) [Compound 1.010] | ≤ 100 | – |
| C/C=C(\C)c1c(N2CCC(n3nc(C(F)(F)F)c(Cl)c3C)C2=O)cnn1-c1ccc(F)cc1 (stereo not shown) [Compound 1.012] | 100 to 20000 | – |
| CC(C)c1c(N2CCC(n3ccc(C(F)(F)F)n3)C2=O)cnn1-c1ccc(F)cc1 (stereo not shown) [Compound 1.013] | 100 to 20000 | – |
| CC(C)c1c(N2CCC(n3nc(-c4ncc[nH]4)c4c(N)ncnc43)C2=O)cnn1-c1ccc(F)cc1 (stereo not shown) [Compound 1.014] | 100 to 20000 | – |
| Cc1c(Cl)c(-c2ncc[nH]2)nn1C1CCN(c2cnn(-c3ccc(F)cc3)c2C(C)C)C1=O (stereo not shown) [Compound 1.015] | 100 to 20000 | – |
| Cc1nn(C2CCN(c3cnn(-c4ccc(F)cc4)c3C(C)C)C2=O)c(C(C)(C)O)c1Cl (stereo not shown) [Compound 1.017] | 100 to 20000 | – |
| Cc1c(Cl)c(C(C)(C)O)nn1C1CCN(c2cnn(-c3ccc(F)cc3)c2C(C)C)C1=O (stereo not shown) [Compound 1.018] | 100 to 20000 | – |
| CCCc1c(N2CCC(n3nc(C(F)(F)F)c(Cl)c3C)C2=O)cnn1-c1cccc(F)c1 (stereo not shown) [Compound 1.019] | 100 to 20000 | – |
| Cc1c(Cl)c(C(F)(F)F)nn1C1CCN(c2cnn(-c3ccc(F)cc3)c2C(C)(C)C)C1=O (stereo not shown) [Compound 1.020] | 100 to 20000 | – |
| CC(C)c1c(N2CCC(n3nc(-c4ncc[nH]4)c4cccnc43)C2=O)cnn1-c1ccc(F)cc1 (stereo not shown) [Compound 1.021] | 100 to 20000 | – |
| Cc1cc(C(F)(F)F)nn1C1CCN(c2cnn(-c3ccc(F)cc3)c2C(C)C)C1=O (stereo not shown) [Compound 1.022] | ≤ 100 | – |
| Cc1c(Cl)c(C(F)(F)F)nn1C1CCN(c2cnn(-c3cccc(F)c3)c2-c2ccoc2)C1=O (stereo not shown) [Compound 1.027] | 100 to 20000 | – |
| Cc1c(Cl)c(C(F)(F)F)nn1C1CCN(c2cnn(-c3ccc(F)cc3)c2C(C)C)C1=O (stereo not shown) [Compound 1.028] | ≤ 100 | – |
| Cc1c(N2CCCCC(n3nc(C(F)(F)F)c(Cl)c3C)C2=O)cnn1-c1ccc(F)cc1 (stereo not shown) [Compound 1.029] | 100 to 20000 | – |
| CCc1c(N2CCC(n3nc(C(F)(F)F)c(Cl)c3C)C2=O)cnn1-c1ccc(F)cc1 (stereo not shown) [Compound 1.032] | ≤ 100 | – |
| Cc1nc(C(F)(F)F)cn1C1CCN(c2cnn(-c3ccc(F)cc3)c2C)C1=O (stereo not shown) [Compound 1.033] | 100 to 20000 | – |
| Cc1c(Cl)c(C(F)(F)F)nn1C1CCCN(c2cnn(-c3ccc(F)cc3)c2)C1=O (stereo not shown) [Compound 1.037] | 100 to 20000 | – |
| Cc1cc(C(F)(F)F)nn1C1CCN(c2cnn(-c3ccc(F)cc3)c2)C1=O (stereo not shown) [Compound 1.038] | 100 to 20000 | – |
| Cc1nc(C(F)(F)F)cn1C1CCN(c2cnn(-c3ccc(F)cc3)c2)C1=O (stereo not shown) [Compound 1.039] | 100 to 20000 | – |
| COc1cc(-n2ncc(N3CC[C@H](n4cc(C(F)(F)F)nc4C)C3=O)c2C(C)C)ccc1Cl [Compound 1.041] | 100 to 20000 | – |
| Cc1nc(C(F)(F)F)cn1[C@H]1CCN(c2cnn(-c3ccc(Cl)cc3)c2C(C)C)C1=O [Compound 1.045] | ≤ 100 | – |

Continued, in another order:

| IC50 (CCR1) [nM] | SMILES | other results |
| --- | --- | --- |
| ≤ 100 | CCc1nc(C(F)(F)F)cn1C1CCN(c2cnn(-c3ccc(Cl)cc3)c2C(C)C)C1=O (stereo not shown) [Compound 1.004] | – |
| ≤ 100 | Cc1c(Cl)c(C(F)(F)F)nn1C1CCN(c2cnn(-c3ccc(Cl)cc3)c2C(C)C)C1=O (stereo not shown) [Compound 1.011] | – |
| 100 to 20000 | Cc1c(Cl)c(C(F)(F)F)nn1C1CCN(c2cnn(-c3cccc(F)c3)c2I)C1=O (stereo not shown) [Compound 1.023] | – |
| 100 to 20000 | Cc1c(Cl)c(C(F)(F)F)nn1C1CCN(c2cnn(-c3cccc(F)c3)c2C2CC2)C1=O (stereo not shown) [Compound 1.024] | – |
| ≤ 100 | Cc1nc(C(F)(F)F)cn1C1CCN(c2cnn(-c3ccc(F)cc3)c2C(C)C)C1=O (stereo not shown) [Compound 1.025] | – |
| 100 to 20000 | Cc1c(Cl)c(C(F)(F)F)nn1C1CCN(c2cnn(-c3ccc(F)cc3)c2-c2ccccc2)C1=O (stereo not shown) [Compound 1.026] | – |
| 100 to 20000 | Cc1c(N2CCCC(n3nc(C(F)(F)F)c(Cl)c3C)C2=O)cnn1-c1ccc(F)cc1 (stereo not shown) [Compound 1.030] | – |
| 100 to 20000 | Cc1nc(C(F)(F)F)cn1C1CCCN(c2cnn(-c3ccc(F)cc3)c2C)C1=O (stereo not shown) [Compound 1.031] | – |
| 100 to 20000 | Cc1c(N2CCC(n3nc(C(F)(F)F)nc3C)C2=O)cnn1-c1ccc(F)cc1 (stereo not shown) [Compound 1.034] | – |
| 100 to 20000 | Cc1c(N2CCC(n3nc(C(F)(F)F)c(Cl)c3C)C2=O)cnn1-c1ccc(F)cc1 (stereo not shown) [Compound 1.035] | – |
| 100 to 20000 | Cc1nc(C(F)(F)F)cn1C1CCCN(c2cnn(-c3ccc(F)cc3)c2C)C1=O (stereo not shown) [Compound 1.036] | – |
| 100 to 20000 | Cc1c(Cl)c(C(F)(F)F)nn1C1CCN(c2cnn(-c3ccc(F)cc3)c2)C1=O (stereo not shown) [Compound 1.040] | – |
| ≤ 100 | Cc1nc(C(F)(F)F)cn1[C@H]1CCN(c2nnn(-c3ccc(Cl)cc3)c2C(C)C)C1=O [Compound 1.042] | neutrophil number in peritoneal exudate (CCR1 bearing neutrophils): dramatic decrease; total cell number in peritoneal exudate (CCR1 bearing neutrophils): dramatic decrease |
| 100 to 20000 | Cc1nc(C(F)(F)F)cn1C1CCN(c2cnn(-c3ccc(Cl)cc3)c2C(F)(F)F)C1=O (stereo not shown) [Compound 1.043] | – |
| ≤ 100 | Cc1nc(C(F)(F)F)cn1C1CCN(c2cnn(-c3ccc(Cl)cc3)c2C2CCC2)C1=O (stereo not shown) [Compound 1.044] | – |

Source: patent US11759454B2, “Diazole lactams” (CHEMOCENTRYX, INC., priority 2012, dated 2023)
